Measurements taken from US12269831B2, “Modulators of cystic fibrosis transmembrane conductance regulator” (Vertex Pharmaceuticals Incorporated, priority 2020, dated 2025).

Target: T1, CFTR (F508del/MF-HBE cells) (Homo sapiens, UniProt P13569, DEL508-508)
T1 construct: human bronchial epithelial (HBE) cells derived from CF subjects heterozygous for F508del and a minimal function CFTR mutation (F508del/MF-HBE); endogenous in cells; host or cells: primary human bronchial epithelial (HBE) cells from CF subjects, genotype F508del/minimal function
T1 sequence (P13569 with tags, fused parts or gaps DEL508-508): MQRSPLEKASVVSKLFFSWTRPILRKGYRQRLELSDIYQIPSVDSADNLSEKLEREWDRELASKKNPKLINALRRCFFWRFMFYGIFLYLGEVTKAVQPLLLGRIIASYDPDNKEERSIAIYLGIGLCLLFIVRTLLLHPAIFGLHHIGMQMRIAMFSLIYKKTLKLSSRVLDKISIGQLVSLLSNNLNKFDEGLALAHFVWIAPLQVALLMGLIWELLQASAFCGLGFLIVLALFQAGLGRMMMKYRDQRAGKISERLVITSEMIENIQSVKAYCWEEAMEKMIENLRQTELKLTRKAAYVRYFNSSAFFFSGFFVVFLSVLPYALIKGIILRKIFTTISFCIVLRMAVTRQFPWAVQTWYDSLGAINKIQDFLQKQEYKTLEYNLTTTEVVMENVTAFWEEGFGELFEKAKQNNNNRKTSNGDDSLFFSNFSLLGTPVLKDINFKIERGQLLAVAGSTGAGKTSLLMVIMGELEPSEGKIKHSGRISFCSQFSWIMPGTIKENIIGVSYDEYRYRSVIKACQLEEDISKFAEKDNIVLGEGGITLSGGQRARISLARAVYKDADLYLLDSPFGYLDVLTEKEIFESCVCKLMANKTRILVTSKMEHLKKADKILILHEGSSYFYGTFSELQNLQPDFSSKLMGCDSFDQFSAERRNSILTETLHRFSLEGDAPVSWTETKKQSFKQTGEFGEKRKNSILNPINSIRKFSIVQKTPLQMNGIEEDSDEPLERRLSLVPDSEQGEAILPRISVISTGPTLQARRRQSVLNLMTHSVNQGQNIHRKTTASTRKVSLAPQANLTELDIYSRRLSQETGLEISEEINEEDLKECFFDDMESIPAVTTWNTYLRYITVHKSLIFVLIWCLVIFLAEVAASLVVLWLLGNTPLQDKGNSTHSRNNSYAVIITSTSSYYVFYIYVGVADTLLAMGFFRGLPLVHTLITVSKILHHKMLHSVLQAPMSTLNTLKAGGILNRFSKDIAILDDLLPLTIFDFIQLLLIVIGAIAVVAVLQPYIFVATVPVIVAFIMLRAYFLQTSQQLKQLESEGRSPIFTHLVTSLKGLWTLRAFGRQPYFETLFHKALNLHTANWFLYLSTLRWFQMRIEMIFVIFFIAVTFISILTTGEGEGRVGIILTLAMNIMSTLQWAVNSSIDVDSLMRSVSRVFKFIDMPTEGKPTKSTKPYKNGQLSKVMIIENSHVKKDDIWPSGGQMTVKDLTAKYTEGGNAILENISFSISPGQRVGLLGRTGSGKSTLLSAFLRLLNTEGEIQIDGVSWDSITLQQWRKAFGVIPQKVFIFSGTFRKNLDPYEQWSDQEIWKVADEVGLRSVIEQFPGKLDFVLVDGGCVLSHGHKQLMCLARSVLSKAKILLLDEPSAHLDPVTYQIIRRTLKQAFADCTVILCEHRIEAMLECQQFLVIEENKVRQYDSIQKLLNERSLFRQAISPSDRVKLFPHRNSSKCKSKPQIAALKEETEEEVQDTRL
Experiment: Ussing chamber assay of CFTR-mediated short-circuit currents (potentiator identification)
Assay type: cell-based
Conditions: CFTR-mediated Isc, 18-24 h incubation at 37° C. with 10 μM (14S)-8-[3-(2-{dispiro[2.0.2.1]heptan-7-yl}ethoxy)-1H-pyrazol-1-yl]-... corrector, 20% human serum
Method: Ussing Chamber Assay of CFTR-Mediated Short-Circuit Currents
Ussing chamber experiments were performed using human bronchial epithelial (HBE) cells derived from CF subjects heterozygous for F508del and a minimal function CFTR mutation (F508del/MF-HBE) and cultured as previously described (Neuberger T, Burton B, Clark H, Van Goor F Methods Mol Biol 2011:741:39-54). After four days the apical media was removed, and the cells were grown at an air liquid interface for >14 days prior to use.
To isolate the CFTR-mediated short-circuit (Isc) current, F508del/MF-HBE grown on Costar® Snapwell™ cell culture inserts were mounted in an Ussing chamber and the transepithelial ISC was measured under voltage-clamp recording conditions (Vhold=0 mV) at 37° C. The basolateral solution contained (in mM) 145 NaCl, 0.83 K2HPO4, 3.3 KH2PO4, 1.2 MgCl2, 1.2 CaCl2, 10 Glucose, 10 HEPES (pH adjusted to 7.4 with NaOH) and the apical solution contained (in mM) 145 NaGluconate, 1.2 MgCl2, 1.2 CaCl2, 10 glucose, 10 HEPES (pH adjusted to 7.4 with NaOH) and 30 μM amiloride to block the epithelial sodium channel. Forskolin (20 μM) was added to the apical surface to activate CFTR, followed by apical addition of a CFTR inhibitor cocktail consisting of BPO, GlyH-101 and CFTR inhibitor 172 (each at 20 μM final assay concentration) to specifically isolate CFTR currents. The CFTR-mediated Isc (μA/cm^2) for each condition was determined from the peak forskolin response to the steady-state current following inhibition.
Identification of Potentiator Compounds
The activity of the CFTR potentiator compounds on the CFTR-mediated Isc was determined in Ussing chamber studies as described above. The F508del/MF-HBE cell cultures were incubated with the potentiator compounds at a range of concentrations in combination with 10 μM (14S)-8-[3-(2-{dispiro[2.0.2.1]heptan-7-yl}ethoxy)-1H-pyrazol-1-yl]-12,12-dimethyl-2λ^6-thia-3,9,11,18,23-pentaazatetracyclo[17.3.1.111,14.05,10]tetracosa-1(22),5,7,9,19(23),20-hexaene-2,2,4-trione for 18-24 hours at 37° C. and in the presence of 20% human serum. The concentration of potentiator compounds and (14S)-8-[3-(2-{dispiro[2.0.2.1]heptan-7-yl}ethoxy)-1H-pyrazol-1-yl]-12,12-dimethyl-2λ^6-thia-3,9,11,18,23-pentaazatetracyclo[17.3.1.111,14.05,10]tetracosa-1(22),5,7,9,19(23),20-hexaene-2,2,4-trione used during the 18-24 hours incubations was kept constant throughout the Ussing chamber measurement of the CFTR-mediated Isc to ensure compounds were present throughout the entire experiment. The efficacy and potency of the putative F508del potentiators was compared to that of the known Vertex potentiator, ivacaftor (N-[2,4-bis(1,1-dimethylethyl)-5-hydroxyphenyl]-1,4-dihydro-4-oxoquinoline-3-carboxamide).

Row | SMILES | EC50 [nM]
1 | C[C@@H]1CC2CC2CC[C@](O)(C(F)(F)F)C2=NN=C(O2)c2nc(c(C(F)(F)F)cc2N)O1 (single isomer, unassigned) [Compound 64] | < 500
2 | CC1CCCCCC(O)(C(F)(F)F)C2=NN=C(O2)c2nc(c(C(F)(F)F)cc2N)O1 (stereo not shown) [Compound 7, 17-amino-12-methyl-6,15-bis(trifluoromethyl)-13,19-dioxa-3,4,18-triazatricyclo[12.3.1.12,5]nonadeca-1(18),2,4,14,16-pentaen-6-ol] | < 500
3 | CC1CCCCCC(O)(C(F)(F)F)C2=NN=C(O2)c2nc(c(C(F)(F)F)cc2N)O1 (stereo not shown) [Compound 8, 17-amino-12-methyl-6,15-bis(trifluoromethyl)-13,19-dioxa-3,4,18-triazatricyclo[12.3.1.12,5]nonadeca-1(18),2,4,14,16-pentaen-6-ol] | < 500
4 | C[C@@H]1CCCCC[C@](O)(C(F)(F)F)C2=NN=C(O2)c2nc(c(C(F)(F)F)cc2N)O1 [Compound 11, (6R,12R)-17-amino-12-methyl-6,15-bis(trifluoromethyl)-13,19-dioxa-3,4,18-triazatricyclo[12.3.1.12,5]nonadeca-1(18),2,4,14,16-pentaen-6-ol] | < 500
5 | C[C@@H]1CCCc2ccc(F)c(c2)C(O)(C(F)(F)F)C2=NN=C(O2)c2nc(c(C(F)(F)F)cc2N)O1 (stereo partly drawn) [Compound 18, (15R)-20-amino-8-fluoro-15-methyl-6,18-bis(trifluoromethyl)-16,23-dioxa-3,4,21-triazatetracyclo[15.3.1.12,5.17,11]tricosa-1(21),2,4,7(22),8,10,17,19-octaen-6-ol] | < 500
6 | C[C@@H]1CC(=O)CCC[C@](O)(C(F)(F)F)C2=NN=C(O2)c2nc(c(C(F)(F)F)cc2N)O1 [Compound 25, (6R,12R)-17-amino-6-hydroxy-12-methyl-6,15-bis(trifluoromethyl)-13,19-dioxa-3,4,18-triazatricyclo[12.3.1.12,5]nonadeca-1(18),2,4,14,16-pentaen-10-one] | > 1000
7 | C[C@@H]1CCC(=O)CC[C@](O)(C(F)(F)F)C2=NN=C(O2)c2nc(c(C(F)(F)F)cc2N)O1 [Compound 26, (6R,12R)-17-amino-6-hydroxy-12-methyl-6,15-bis(trifluoromethyl)-13,19-dioxa-3,4,18-triazatricyclo[12.3.1.12,5]nonadeca-1(18),2,4,14,16-pentaen-9-one] | < 500
8 | [2H]C1CC[C@](O)(C(F)(F)F)C2=NN=C(O2)c2nc(c(C(F)(F)F)cc2N)O[C@H](C)CC1[2H] (stereo partly drawn) [Compound 38, (6R,12R)-17-amino-9,10-dideuterio-12-methyl-6,15-bis(trifluoromethyl)-13,19-dioxa-3,4,18-triazatricyclo[12.3.1.12,5]nonadeca-1(18),2,4,14,16-pentaen-6-ol] | < 500
9 | [2H]C([2H])([2H])[C@@]1([2H])Oc2nc(c(N)cc2C(F)(F)F)C2=NN=C(O2)[C@@](O)(C(F)(F)F)CCCCC1([2H])[2H] [Compound 39, (6R,12R)-17-amino-11,11,12-trideuterio-12-(trideuteriomethyl)-6,15-bis(trifluoromethyl)-13,19-dioxa-3,4,18-triazatricyclo[12.3.1.12,5]nonadeca-1(18),2,4,14,16-pentaen-6-ol] | < 500

More lines, now with the values ahead:

Row | EC50 [nM] | SMILES
10 | < 500 | Nc1cc(C(F)(F)F)c2nc1-c1nnc(o1)[C@@](O)(C(F)(F)F)CCCCCCO2 [Compound 5, (6R)-17-amino-6,15-bis(trifluoromethyl)-13,19-dioxa-3,4,18-triazatricyclo[12.3.1.12,5]nonadeca-1(18),2,4,14,16-pentaen-6-ol]
11 | > 1000 | Nc1cc(C(F)(F)F)c2nc1-c1nnc(o1)[C@](O)(C(F)(F)F)CCCCCCO2 [Compound 6, (6S)-17-amino-6,15-bis(trifluoromethyl)-13,19-dioxa-3,4,18-triazatricyclo[12.3.1.12,5]nonadeca-1(18),2,4,14,16-pentaen-6-ol]
12 | < 500 | C[C@@H]1CCCCC[C@@](O)(C(F)(F)F)C2=NN=C(O2)c2nc(c(C(F)(F)F)cc2N)O1 [Compound 12, (6S,12R)-17-Amino-12-methyl-6,15-bis(trifluoromethyl)-13,19-dioxa-3,4,18-triazatricyclo[12.3.1.12,5]nonadeca-1(18),2,4,14,16-pentaen-6-ol]
13 | < 500 | C[C@H]1CCCCC[C@@](O)(C(F)(F)F)C2=NN=C(O2)c2nc(c(C(F)(F)F)cc2N)O1 [Compound 13, (6S,12S)-17-amino-12-methyl-6,15-bis(trifluoromethyl)-13,19-dioxa-3,4,18-triazatricyclo[12.3.1.12,5]nonadeca-1(18),2,4,14,16-pentaen-6-ol]
14 | < 500 | C[C@H]1CCCCC[C@](O)(C(F)(F)F)C2=NN=C(O2)c2nc(c(C(F)(F)F)cc2N)O1 [Compound 14, (6R,12S)-17-amino-12-methyl-6,15-bis(trifluoromethyl)-13,19-dioxa-3,4,18-triazatricyclo[12.3.1.12,5]nonadeca-1(18),2,4,14,16-pentaen-6-ol]
15 | < 500 | Nc1cc(C(F)(F)F)c2nc1-c1nnc(o1)C(O)(C(F)(F)F)CCCCc1ccccc1O2 (stereo not shown) [Compound 17, 21-amino-6,19-bis(trifluoromethyl)-17,23-dioxa-3,4,22-triazatetracyclo[16.3.1.12,5.011,16]tricosa-1(22),2,4,11(16),12,14,18,20-octaen-6-ol]
16 | < 500 | Nc1cc(C(F)(F)F)c2nc1-c1nnc(o1)[C@@](O)(C(F)(F)F)CCCCCC[S@+]2[O-] [Compound 19, (6R,13S)-17-Amino-13-oxido-6,15-bis(trifluoromethyl)-19-oxa-13-thionia-3,4,18-triazatricyclo[12.3.1.12,5]nonadeca-1(18),2,4,14,16-pentaen-6-ol]
17 | 500 to 1000 | Nc1cc(C(F)(F)F)c2nc1-c1nnc(o1)[C@@](O)(C(F)(F)F)CCCCCC[S@@+]2[O-] [Compound 20, (6R,13R)-17-amino-13-oxido-6,15-bis(trifluoromethyl)-19-oxa-13-thionia-3,4,18-triazatricyclo[12.3.1.12,5]nonadeca-1(18),2,4,14,16-pentaen-6-ol]
18 | < 500 | Nc1cc(C(F)(F)F)c2nc1-c1nnc(o1)[C@@](O)(C(F)(F)F)CCCCCCS2 [Compound 21, (6R)-17-Amino-6,15-bis(trifluoromethyl)-19-oxa-13-thia-3,4,18-triazatricyclo[12.3.1.12,5]nonadeca-1(18),2,4,14,16-pentaen-6-ol]
19 | < 500 | Nc1cc(C(F)(F)F)c2nc1-c1nnc(o1)[C@@](O)(C(F)(F)F)CCCCCS2 [Compound 22, (6R)-16-amino-6,14-bis(trifluoromethyl)-18-oxa-12-thia-3,4,17-triazatricyclo[11.3.1.12,5]octadeca-1(17),2,4,13,15-pentaen-6-ol]
20 | < 500 | CC1CCC(O)(C(F)(F)F)C2=NN=C(O2)c2nc(c(C(F)(F)F)cc2N)Oc2cccc1c2 (stereo not shown) [Compound 29, 19-amino-9-methyl-6,17-bis(trifluoromethyl)-15,22-dioxa-3,4,20-triazatetracyclo[14.3.1.12,5.110,14]docosa-1(20),2,4,10(21),11,13,16,18-octaen-6-ol]
21 | < 500 | Nc1cc(C(F)(F)F)c2nc1-c1nnc(o1)[C@@](O)(C(F)(F)F)CCCCC[C@H](CO)O2 [Compound 36, (6R,12R)-17-amino-12-(hydroxymethyl)-6,15-bis(trifluoromethyl)-13,19-dioxa-3,4,18-triazatricyclo[12.3.1.12,5]nonadeca-1(18),2,4,14,16-pentaen-6-ol]
22 | < 500 | Nc1cc(C(F)(F)F)c2nc1-c1nnc(o1)[C@@](O)(C(F)(F)F)CCCCC[C@@H](CO)O2 [Compound 37, (6R,12S)-17-amino-12-(hydroxymethyl)-6,15-bis(trifluoromethyl)-13,19-dioxa-3,4,18-triazatricyclo[12.3.1.12,5]nonadeca-1(18),2,4,14,16-pentaen-6-ol]
